The record followed here is ChEMBL document CHEMBL4665653, “VU6005806/AZN-00016130, an advanced M positive allosteric modulator (PAM) profiled as a potential preclinical development candidate” (Bioorg Med Chem Lett, 2019).

Data set [1] deals with T1, Muscarinic acetylcholine receptor M4 (Homo sapiens) (UniProt P08173).
T1 sequence (whole entry): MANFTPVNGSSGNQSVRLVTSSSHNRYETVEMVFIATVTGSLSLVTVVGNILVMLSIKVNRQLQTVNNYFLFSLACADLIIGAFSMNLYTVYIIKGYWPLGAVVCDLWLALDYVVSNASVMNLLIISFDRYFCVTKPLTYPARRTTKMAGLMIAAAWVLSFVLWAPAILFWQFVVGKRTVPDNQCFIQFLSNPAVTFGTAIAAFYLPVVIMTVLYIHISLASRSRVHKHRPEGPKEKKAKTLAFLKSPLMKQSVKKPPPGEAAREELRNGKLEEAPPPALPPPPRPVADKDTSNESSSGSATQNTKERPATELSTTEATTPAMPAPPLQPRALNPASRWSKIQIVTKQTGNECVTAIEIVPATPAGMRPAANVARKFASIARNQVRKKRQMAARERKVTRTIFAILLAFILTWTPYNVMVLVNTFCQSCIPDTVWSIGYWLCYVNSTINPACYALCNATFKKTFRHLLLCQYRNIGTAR
Briefly: Positive allosteric modulation of human M4 receptor/Gqi5 in presence of EC20 acetylcholine by calcium mobilization assay relative to acetylcholine. To be noted: filed as positive allosteric modulator. In kind it is functional. (A change in cytosolic calcium serves as a functional read-out for many receptors and channels.)

The target in data set [2] is T2, Muscarinic acetylcholine receptor M4 (Homo sapiens, UniProt P08173).
T2 sequence (P08173 whole entry): T1 sequence (whole entry)
Description: Positive allosteric modulation of human M4 receptor/Gqi5 in presence of EC20 acetylcholine by calcium mobilization assay. Type of data set: functional.

Data set [3] concerns the target Muscarinic acetylcholine receptor M3 (Homo sapiens, UniProt P20309). Briefly: Positive allosteric modulation of human M3 receptor.
Data set [4] addresses T3, Muscarinic acetylcholine receptor M2 (Homo sapiens, UniProt P08172).
T3 sequence (P08172 whole entry): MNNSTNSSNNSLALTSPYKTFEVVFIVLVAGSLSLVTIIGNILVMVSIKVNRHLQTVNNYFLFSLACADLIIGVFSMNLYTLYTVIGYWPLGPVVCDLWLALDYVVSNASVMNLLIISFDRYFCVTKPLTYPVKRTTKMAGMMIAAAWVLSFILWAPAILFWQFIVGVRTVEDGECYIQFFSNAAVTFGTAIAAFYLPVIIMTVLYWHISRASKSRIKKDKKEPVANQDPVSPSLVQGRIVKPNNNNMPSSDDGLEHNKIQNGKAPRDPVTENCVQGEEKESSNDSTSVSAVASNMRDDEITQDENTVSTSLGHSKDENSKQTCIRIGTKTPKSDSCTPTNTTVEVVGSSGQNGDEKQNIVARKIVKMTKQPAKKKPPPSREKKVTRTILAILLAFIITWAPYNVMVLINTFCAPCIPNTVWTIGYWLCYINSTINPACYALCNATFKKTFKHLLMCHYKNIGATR
Description: Positive allosteric modulation of human M2 receptor/Gqi5 in presence of EC20 acetylcholine by calcium mobilization assay.

Data set [5] has as its target T4, Muscarinic acetylcholine receptor M1 (Homo sapiens) (UniProt P11229).
T4 sequence (whole entry): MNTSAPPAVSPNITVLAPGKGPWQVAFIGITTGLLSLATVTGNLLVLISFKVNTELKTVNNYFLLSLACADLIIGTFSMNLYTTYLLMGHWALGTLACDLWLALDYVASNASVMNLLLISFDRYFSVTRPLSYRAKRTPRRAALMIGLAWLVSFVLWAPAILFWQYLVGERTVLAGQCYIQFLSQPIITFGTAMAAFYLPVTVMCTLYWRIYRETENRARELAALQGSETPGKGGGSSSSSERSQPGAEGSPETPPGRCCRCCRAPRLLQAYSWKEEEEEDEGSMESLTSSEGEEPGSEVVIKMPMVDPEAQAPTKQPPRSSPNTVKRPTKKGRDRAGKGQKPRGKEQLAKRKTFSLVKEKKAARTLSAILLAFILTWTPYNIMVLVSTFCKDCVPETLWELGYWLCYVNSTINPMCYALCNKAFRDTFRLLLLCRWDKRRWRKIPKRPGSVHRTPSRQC
Description: Positive allosteric modulation of human M1 receptor.

Data set [6] addresses T5, Muscarinic acetylcholine receptor M5 (Homo sapiens) (UniProt P08912).
T5 sequence (whole entry): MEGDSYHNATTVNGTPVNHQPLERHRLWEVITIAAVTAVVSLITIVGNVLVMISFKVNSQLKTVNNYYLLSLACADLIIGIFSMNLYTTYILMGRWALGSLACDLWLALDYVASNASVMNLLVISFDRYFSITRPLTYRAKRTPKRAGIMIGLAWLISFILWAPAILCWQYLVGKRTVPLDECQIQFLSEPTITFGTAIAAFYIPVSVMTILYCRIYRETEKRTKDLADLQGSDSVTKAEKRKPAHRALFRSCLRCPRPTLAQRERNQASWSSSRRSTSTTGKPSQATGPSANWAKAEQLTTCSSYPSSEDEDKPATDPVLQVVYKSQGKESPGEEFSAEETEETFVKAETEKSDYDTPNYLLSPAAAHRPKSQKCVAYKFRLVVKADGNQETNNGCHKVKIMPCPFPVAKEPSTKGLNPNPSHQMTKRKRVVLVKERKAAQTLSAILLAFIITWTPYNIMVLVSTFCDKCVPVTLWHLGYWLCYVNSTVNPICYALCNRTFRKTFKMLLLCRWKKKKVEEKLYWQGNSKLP
Description: Positive allosteric modulation of human M5 receptor.

The target in data set [7] is T3, Muscarinic acetylcholine receptor M2. Description: Positive allosteric modulation of human M2 receptor/Gqi5 in presence of EC20 acetylcholine by calcium mobilization assay relative to acetylcholine. To be noted: read-out: %max.
Data set [8] is described as follows: Fraction unbound in human plasma. In kind it is ADME, cell-free.
Data set [9] in a line: Fraction unbound in rat plasma. Type of data set: ADME, cell-free.
The nature of data set [10]: Unbound brain-to-plasma concentration ratio in Sprague-Dawley rat at 0.1 to 0.2 mg/kg, iv measured after 0.25 hrs. Type of data set: ADME, organism-based. To be noted: dose 0.1-0.2 mg/kg, read-out: K(p,uu,brain).
A short description of data set [11]: Fraction unbound in rat brain. Type of data set: ADME, tissue-based.
Data set [12] can be described thus: Brain to plasma permeability coefficient, Kp in Sprague-Dawley rat at 0.1 to 0.2 mg/kg, iv measured after 0.25 hrs. To be noted: dose 0.1-0.2 mg/kg. Type of data set: ADME, organism-based.
Data set [13] is described as follows: Hepatic clearance in rat. Type of data set: ADME. To be noted: in vivo.

The EC50 is the concentration needed to bring the measured effect to its halfway point. The fraction unbound is the share of the substance not bound to proteins or other matrix. As usually defined, the Kp is tissue or fluid exposure divided by exposure in the circulation.

Calls of active or inactive are those of the source. The calls are words filed in the database; no cut-off is given here.

Muscarinic acetylcholine receptor M3, sequence (P20309 whole entry, looked up): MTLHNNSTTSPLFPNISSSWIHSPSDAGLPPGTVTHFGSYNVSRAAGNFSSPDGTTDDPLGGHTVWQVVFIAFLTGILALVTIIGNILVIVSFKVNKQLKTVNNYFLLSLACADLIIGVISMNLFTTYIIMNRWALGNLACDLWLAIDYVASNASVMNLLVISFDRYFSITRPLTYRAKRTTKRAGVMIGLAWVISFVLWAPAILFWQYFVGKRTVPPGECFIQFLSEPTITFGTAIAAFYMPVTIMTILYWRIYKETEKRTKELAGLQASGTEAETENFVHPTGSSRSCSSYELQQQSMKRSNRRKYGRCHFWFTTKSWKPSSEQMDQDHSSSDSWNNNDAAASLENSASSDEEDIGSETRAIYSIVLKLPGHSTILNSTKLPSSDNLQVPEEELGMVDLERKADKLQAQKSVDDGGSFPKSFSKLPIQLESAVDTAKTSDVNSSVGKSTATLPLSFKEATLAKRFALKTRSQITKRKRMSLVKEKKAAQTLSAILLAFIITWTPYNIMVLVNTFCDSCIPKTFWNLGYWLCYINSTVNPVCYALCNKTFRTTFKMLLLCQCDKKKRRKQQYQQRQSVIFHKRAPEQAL

Consider `COc1nnc2sc(C(=O)NC3Cc4ccccc4C3)c(N)c2c1C`, for which, in [1], the %max is 83%. In addition, the half-maximal effective concentration (EC50) in [2] was found to be 20 nM.
Turning to `Cc1c(C(C)C)nnc2sc(C(=O)NC3CN(c4ncc(C(F)(F)F)cn4)C3)c(N)c12`, in data set [1], the %max was found to be 56%. Further, the outcome in [3], in data set [5] and in data set [6] was inactive. For the same compound, the values for the EC50 in data set [2] and in [4] were 540 nM and over 30000 nM, respectively.
Consider `Cc1c(Cl)nnc2sc(C(=O)NC3CN(c4cccnc4)C3)c(N)c12`, for which the %max in data set [1] is 86%. For the same compound, the result in data set [3], in data set [5] and in data set [6] was inactive. Moreover, the 50% effective concentration (EC50) in data set [2] came to 20 nM; in [4], 1100 nM. Moreover, in data set [7], the Emax was found to be 64%.
`Cc1nc(Cl)c(C)c(N2CC(NC(=O)c3sc4nnc(Cl)c(C)c4c3N)C2)n1`: the %max in data set [1] is 84%. The outcome in data set [3], in [5] and in data set [6] was inactive. The values for the EC50 in data set [2] and in data set [4] were 100 nM and over 30000 nM, respectively.
For the compound `Cc1nnc2sc(C(=O)NC3Cc4ccccc4C3)c(N)c2c1C`, the %max in data set [1] amounted to 79%. In data set [2], the EC50 is 20 nM.
Consider `Cc1c(Cl)nnc2sc(C(=O)NC3CN(c4ccnc(F)c4Cl)C3)c(N)c12`, for which, in data set [1], the %max was found to be 72%. Besides, the outcome in [3], in [5] and in data set [6] was inactive. Besides, the concentration for a half-maximal effect (EC50) in data set [2] was 70 nM; in [4] it was over 30000 nM.
For `COCCOc1nnc2sc(C(=O)NC3CN(c4ncc(C(F)(F)F)cn4)C3)c(N)c2c1C`, in [1], the %max amounted to 48%. The outcome in data set [3], in data set [5] and in data set [6] was inactive. The figures for the EC50 in data set [2] and in data set [4] were 180 nM and over 30000 nM, respectively.
Regarding `CCc1nnc2sc(C(=O)NC3CN(c4ncc(C(F)(F)F)cn4)C3)c(N)c2c1C`, the %max in data set [1] was 77%. Further, the result in [3], in data set [5] and in data set [6] was inactive. The EC50 in data set [2] was 510 nM; in data set [4], over 30000 nM.
As for `Cc1c(Cl)nnc2sc(C(=O)NC3Cc4ccccc4C3)c(N)c12`, in data set [1], the %max was determined as 73%. Also, the EC50 in [2] was 10 nM.
Turning to `Cc1c(O)nnc2sc(C(=O)NC3CN(c4ncc(C(F)(F)F)cn4)C3)c(N)c12`, in [1], the %max was 45%. For the same compound, the outcome in data set [3], in data set [5] and in [6] was inactive. The EC50 was 6720 nM in data set [2] and over 30000 nM in [4].
For the compound `Cc1c(Cl)nnc2sc(C(=O)NC3CN(c4nnc(CC(C)C)o4)C3)c(N)c12`, the %max in data set [1] is 47%. Also, the result in data set [3], in data set [5] and in data set [6] was inactive. In addition, the EC50 is 230 nM in data set [2] and over 10000 nM in data set [4]. Besides, in data set [7], the Emax was 62%.
As to `Cc1c(CO)nnc2sc(C(=O)NC3CN(c4ncc(C(F)(F)F)cn4)C3)c(N)c12`, the %max in data set [1] came out at 75%. Also, the outcome in [3], in data set [5] and in [6] was inactive. In addition, the EC50 in data set [2] was 1170 nM; in [4], over 30000 nM.
`Cc1c(CN(C)C)nnc2sc(C(=O)NC3CN(c4ncc(C(F)(F)F)cn4)C3)c(N)c12`: the outcome in data set [3], in data set [5] and in data set [6] was inactive. Besides, the EC50 in [2] and in [4] was over 30000 nM throughout.
Regarding `Cc1c(Cl)nnc2sc(C(=O)NC3CN(c4cnc(Cl)cn4)C3)c(N)c12`, in [1], the %max was found to be 99%. The result in data set [3], in data set [5] and in data set [6] was inactive. Also, the results for the EC50 in data set [2] and in [4] were 140 nM and 400 nM, respectively. For the same compound, in data set [7], the Emax was determined as 40%.
`Cc1c(Cl)nnc2sc(C(=O)NC3CN(c4ncc(C(F)(F)F)cn4)C3)c(N)c12`: the fraction unbound was found to be 0.022 in data set [8], 0.022 in data set [9] and 0.037 in data set [11]. In addition, the %max in [1] is 78%. For the same compound, the outcome in [3], in data set [5] and in data set [6] was inactive. In addition, the Kp uu at 0.25 h in data set [10] is 0.17. The EC50 was 60 nM in [2] and over 30000 nM in data set [4]. This compound displayed a Kp at 0.25 h in data set [12] of 0.1. In [13], this compound registered a CLH of 51.9 mL/min/kg.
`Cc1cc(C2CC2)ncc1N1CC(NC(=O)c2sc3nnc(Cl)c(C)c3c2N)C1`: the %max in [1] was 90%. The outcome in data set [3], in data set [5] and in data set [6] was inactive. Besides, the figures for the EC50 in data set [2] and in data set [4] were 150 nM and 870 nM, respectively. Moreover, the Emax in [7] was determined as 33%.
As for `Cc1c(Cl)nnc2sc(C(=O)NC3CN(c4cc(Cl)ncc4Cl)C3)c(N)c12`, the %max in data set [1] was 59%. In addition, the outcome in [3], in [5] and in data set [6] was inactive. Moreover, the EC50 was 30 nM in [2] and over 30000 nM in [4].
In the case of `Cc1c(Cl)nnc2sc(C(=O)NC3CN(c4ncncc4C#N)C3)c(N)c12`, the %max in data set [1] came out at 65%. The outcome in [3], in data set [5] and in data set [6] was inactive. Further, the concentration giving a half-maximal response (EC50) in [2] is 220 nM; in [4] it was over 30000 nM.
Consider `Cc1c(O)nnc2sc(C(=O)NC3Cc4ccccc4C3)c(N)c12`, for which the %max in [1] turned out to be 71%. Besides, the EC50 in [2] is 290 nM.
With `Cc1cnnc2sc(C(=O)NC3Cc4ccccc4C3)c(N)c12`, the %max in data set [1] came to 81%. In data set [2], the half-maximal effective concentration (EC50) was 60 nM.
As to `Cc1c(Cl)nnc2sc(C(=O)NC3CN(c4ccc(C5CC5)nn4)C3)c(N)c12`, the %max in data set [1] worked out at 94%. The outcome in data set [3], in data set [5] and in data set [6] was inactive. In addition, the values for the EC50 in data set [2] and in data set [4] were 120 nM and over 5000 nM, respectively. In addition, in [7], the Emax is 43%.
